Source: PubChem BioAssay (NCI)
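Exposure lasted 48 hours, with cells grown in 96-well plates and compounds tested at five concentrations. TGI is the concentration that stops growth completely.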

Tests used:
Test in all cases: DTP human tumour cell line panel, 48 h
COLO 205 colon = test system: COLO 205 colon
A549 NSCLC = test system: A549 NSCLC
A498 renal = test system: A498 renal
OVCAR-5 ovarian = test system: OVCAR-5 ovarian
SN12C renal = test system: SN12C renal
SK-OV-3 ovarian = test system: SK-OV-3 ovarian
DU-145 prostate = test system: DU-145 prostate
CCRF-CEM leukemia = test system: CCRF-CEM leukemia
HL-60(TB) leukemia = test system: HL-60(TB) leukemia
NCI-H23 lung = test system: NCI-H23 lung
SF-539 CNS = test system: SF-539 CNS
NCI-H226 lung = test system: NCI-H226 lung
T-47D breast = test system: T-47D breast
SR leukemia = test system: SR leukemia
RPMI-8226 leukemia = test system: RPMI-8226 leukemia
ACHN renal = test system: ACHN renal
UACC-62 melanoma = test system: UACC-62 melanoma
786-0 renal = test system: 786-0 renal
HT29 colon = test system: HT29 colon
PC-3 prostate = test system: PC-3 prostate
K-562 leukemia = test system: K-562 leukemia
HCT-15 colon = test system: HCT-15 colon
OVCAR-8 ovarian = test system: OVCAR-8 ovarian
HOP-62 NSCLC = test system: HOP-62 NSCLC
EKVX NSCLC = test system: EKVX NSCLC
CAKI-1 renal = test system: CAKI-1 renal
BT-549 breast = test system: BT-549 breast
SK-MEL-5 melanoma = test system: SK-MEL-5 melanoma
MCF7 breast = test system: MCF7 breast
LOX IMVI melanoma = test system: LOX IMVI melanoma
KM12 colon = test system: KM12 colon
UACC-257 melanoma = test system: UACC-257 melanoma
SK-MEL-28 melanoma = test system: SK-MEL-28 melanoma
UO-31 renal = test system: UO-31 renal
MOLT-4 leukemia = test system: MOLT-4 leukemia
SW-620 colon = test system: SW-620 colon
HS 578T breast = test system: HS 578T breast
HCT-116 colon = test system: HCT-116 colon
NCI/ADR-RES ovarian = test system: NCI/ADR-RES ovarian
TK-10 renal = test system: TK-10 renal
NCI-H522 lung = test system: NCI-H522 lung
MDA-MB-231 breast = test system: MDA-MB-231 breast
SNB-19 CNS = test system: SNB-19 CNS
MDA-N = test system: MDA-N
OVCAR-3 ovarian = test system: OVCAR-3 ovarian
SF-268 CNS = test system: SF-268 CNS
NCI-H460 lung = test system: NCI-H460 lung
U251 CNS = test system: U251 CNS
M14 melanoma = test system: M14 melanoma
OVCAR-4 ovarian = test system: OVCAR-4 ovarian
IGROV1 ovarian = test system: IGROV1 ovarian
SK-MEL-2 melanoma = test system: SK-MEL-2 melanoma
SNB-75 CNS = test system: SNB-75 CNS
MDA-MB-435 = test system: MDA-MB-435
SF-295 CNS = test system: SF-295 CNS

Measured: TGI

CN(C)C1C(CO)OC(n2cnc3c(N)ncnc32)C1O (stereo not given)
> 100 µM: all assays above
